{
  "source": "patent US6358885B1",
  "about": "“Substituted phenylheterocyclic herbicides” (Mississippi State University, priority 1992, dated 2002)",
  "experiment_in_all_cases": "Test G preemergence/postemergence greenhouse plant response rating 0 to 100",
  "key": {"[1]": {"tested_on": "alfalfa", "assay_type": "in vivo, Medicago ativa", "settings": "0 to 100 scale", "in_short": "(§1)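 Pre- and postemergence treatments used compound in non-phytotoxic solvent on potted greenhouse plants grown from seed, rhizome or plant part. Postemergence plants were at the 2–4 leaf stage; damage was assessed by eye versus untreated pots after 13–21 days.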"}, "[2]": {"tested_on": "annual bluegrass", "assay_type": "in vivo, Poa annua", "settings": "0 to 100 scale", "in_short": "as §1"}, "[3]": {"tested_on": "bermudagrass", "assay_type": "in vivo, Cynodon dactylon", "settings": "0 to 100 scale", "in_short": "as §1"}, "[4]": {"tested_on": "broadleaf signalgrass", "assay_type": "in vivo, Brachiaria plantaginea", "settings": "0 to 100 scale", "in_short": "as §1"}, "[5]": {"tested_on": "common purslane", "assay_type": "in vivo, Portulaca oleracea", "settings": "0 to 100 scale", "in_short": "as §1"}, "[6]": {"tested_on": "common ragweed", "assay_type": "in vivo, Ambrosia elatior", "settings": "0 to 100 scale", "in_short": "as §1"}, "[7]": {"tested_on": "goosegrass", "assay_type": "in vivo, Eleusine indica", "settings": "0 to 100 scale", "in_short": "as §1"}, "[8]": {"tested_on": "guineagrass", "assay_type": "in vivo, Panicum maximum", "settings": "0 to 100 scale", "in_short": "as §1"}, "[9]": {"tested_on": "itchgrass", "assay_type": "in vivo, Rottboellia exaltata", "settings": "0 to 100 scale", "in_short": "as §1"}, "[10]": {"tested_on": "johnsongrass", "assay_type": "in vivo, Sorghum halepense", "settings": "0 to 100 scale", "in_short": "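Scoring: visual injury at 13 to 21 days post-application, compared with untreated controls. Planting: one species per pot in greenhouse medium. Dosing: compound in non-phytotoxic solvent, within one day of sowing for preemergence or at 2–4 leaves for postemergence.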"}, "[11]": {"tested_on": "large crabgrass", "assay_type": "in vivo, Digitaria sanguinalis", "settings": "0 to 100 scale", "in_short": "as §1"}, "[12]": {"tested_on": "peanut", "assay_type": "in vivo, Arachis hypoagaea", "settings": "0 to 100 scale", "in_short": "as §1"}, "[13]": {"tested_on": "pitted morningglory", "assay_type": "in vivo, Ipomoea lacunosa", "settings": "0 to 100 scale", "in_short": "as §1"}, "[14]": {"tested_on": "sandbur", "assay_type": "in vivo, Cenchrus echinatus", "settings": "0 to 100 scale", "in_short": "as §1"}, "[15]": {"tested_on": "smooth crabgrass", "assay_type": "in vivo, Digitaria ischaemum", "settings": "0 to 100 scale", "in_short": "as §1"}, "[16]": {"tested_on": "yellow nutsedge", "assay_type": "in vivo, Cyperus esculentus", "settings": "Rate 125 g/ha, 0 to 100 scale", "in_short": "as §1"}},
  "data": [
    {"smiles": "COc1cc(-c2nn3c(c2Cl)CCCC3)c(F)cc1Cl", "note": "[Compound 29]", "values": [
      {"measurement": "Plant response rating, Alfalfa Var.", "setting": "[1]; POSTEMERGENCE, Rate 125 g/ha", "value": 0},
      {"measurement": "Plant response rating, Alfalfa Var.", "setting": "[1]; POSTEMERGENCE, Rate 250 g/ha", "value": 70},
      {"measurement": "Plant response rating, Alfalfa Var.", "setting": "[1]; PREEMERGENCE, Rate 125 g/ha", "value": 0},
      {"measurement": "Plant response rating, Alfalfa Var.", "setting": "[1]; PREEMERGENCE, Rate 250 g/ha", "value": 0},
      {"measurement": "Plant response rating, Ann Bluegrass", "setting": "[2]; POSTEMERGENCE, Rate 125 g/ha", "value": 0},
      {"measurement": "Plant response rating, Ann Bluegrass", "setting": "[2]; POSTEMERGENCE, Rate 250 g/ha", "value": 0},
      {"measurement": "Plant response rating, Ann Bluegrass", "setting": "[2]; PREEMERGENCE, Rate 125 g/ha", "value": 0},
      {"measurement": "Plant response rating, Ann Bluegrass", "setting": "[2]; PREEMERGENCE, Rate 250 g/ha", "value": 0},
      {"measurement": "Plant response rating, Bermudagrass", "setting": "[3]; POSTEMERGENCE, Rate 125 g/ha", "value": 0},
      {"measurement": "Plant response rating, Bermudagrass", "setting": "[3]; POSTEMERGENCE, Rate 250 g/ha", "value": 0},
      {"measurement": "Plant response rating, Bermudagrass", "setting": "[3]; PREEMERGENCE, Rate 125 g/ha", "value": 0},
      {"measurement": "Plant response rating, Bermudagrass", "setting": "[3]; PREEMERGENCE, Rate 250 g/ha", "value": 50},
      {"measurement": "Plant response rating, Brdlf Sgnlgrass", "setting": "[4]; POSTEMERGENCE, Rate 125 g/ha", "value": 0},
      {"measurement": "Plant response rating, Brdlf Sgnlgrass", "setting": "[4]; POSTEMERGENCE, Rate 250 g/ha", "value": 0},
      {"measurement": "Plant response rating, Brdlf Sgnlgrass", "setting": "[4]; PREEMERGENCE, Rate 125 g/ha", "value": 0},
      {"measurement": "Plant response rating, Brdlf Sgnlgrass", "setting": "[4]; PREEMERGENCE, Rate 250 g/ha", "value": 0},
      {"measurement": "Plant response rating, Cmn Purslane", "setting": "[5]; POSTEMERGENCE, Rate 125 g/ha", "value": 90},
      {"measurement": "Plant response rating, Cmn Purslane", "setting": "[5]; POSTEMERGENCE, Rate 250 g/ha", "value": 80},
      {"measurement": "Plant response rating, Cmn Purslane", "setting": "[5]; PREEMERGENCE, Rate 125 g/ha", "value": 0},
      {"measurement": "Plant response rating, Cmn Purslane", "setting": "[5]; PREEMERGENCE, Rate 250 g/ha", "value": 100},
      {"measurement": "Plant response rating, Cmn Ragweed", "setting": "[6]; POSTEMERGENCE, Rate 125 g/ha", "value": 20},
      {"measurement": "Plant response rating, Cmn Ragweed", "setting": "[6]; POSTEMERGENCE, Rate 250 g/ha", "value": 60},
      {"measurement": "Plant response rating, Cmn Ragweed", "setting": "[6]; PREEMERGENCE, Rate 125 g/ha", "value": 20},
      {"measurement": "Plant response rating, Cmn Ragweed", "setting": "[6]; PREEMERGENCE, Rate 250 g/ha", "value": 40},
      {"measurement": "Plant response rating, Goosegrass", "setting": "[7]; POSTEMERGENCE, Rate 125 g/ha", "value": 0},
      {"measurement": "Plant response rating, Goosegrass", "setting": "[7]; POSTEMERGENCE, Rate 250 g/ha", "value": 0},
      {"measurement": "Plant response rating, Goosegrass", "setting": "[7]; PREEMERGENCE, Rate 125 g/ha", "value": 90},
      {"measurement": "Plant response rating, Goosegrass", "setting": "[7]; PREEMERGENCE, Rate 250 g/ha", "value": 100},
      {"measurement": "Plant response rating, Guineagrass", "setting": "[8]; POSTEMERGENCE, Rate 125 g/ha", "value": 0},
      {"measurement": "Plant response rating, Guineagrass", "setting": "[8]; POSTEMERGENCE, Rate 250 g/ha", "value": 0},
      {"measurement": "Plant response rating, Guineagrass", "setting": "[8]; PREEMERGENCE, Rate 125 g/ha", "value": 0},
      {"measurement": "Plant response rating, Guineagrass", "setting": "[8]; PREEMERGENCE, Rate 250 g/ha", "value": 100},
      {"measurement": "Plant response rating, Itchgrass", "setting": "[9]; POSTEMERGENCE, Rate 125 g/ha", "value": 0},
      {"measurement": "Plant response rating, Itchgrass", "setting": "[9]; POSTEMERGENCE, Rate 250 g/ha", "value": 0},
      {"measurement": "Plant response rating, Itchgrass", "setting": "[9]; PREEMERGENCE, Rate 125 g/ha", "value": 100},
      {"measurement": "Plant response rating, Itchgrass", "setting": "[9]; PREEMERGENCE, Rate 250 g/ha", "value": 40},
      {"measurement": "Plant response rating, Johnsongrass", "setting": "[10]; POSTEMERGENCE, Rate 125 g/ha", "value": 0},
      {"measurement": "Plant response rating, Johnsongrass", "setting": "[10]; POSTEMERGENCE, Rate 250 g/ha", "value": 0},
      {"measurement": "Plant response rating, Johnsongrass", "setting": "[10]; PREEMERGENCE, Rate 125 g/ha", "value": 0},
      {"measurement": "Plant response rating, Johnsongrass", "setting": "[10]; PREEMERGENCE, Rate 250 g/ha", "value": 0},
      {"measurement": "Plant response rating, Large Crabgrass", "setting": "[11]; POSTEMERGENCE, Rate 125 g/ha", "value": 0},
      {"measurement": "Plant response rating, Large Crabgrass", "setting": "[11]; POSTEMERGENCE, Rate 250 g/ha", "value": 0},
      {"measurement": "Plant response rating, Large Crabgrass", "setting": "[11]; PREEMERGENCE, Rate 125 g/ha", "value": 80},
      {"measurement": "Plant response rating, Large Crabgrass", "setting": "[11]; PREEMERGENCE, Rate 250 g/ha", "value": 100},
      {"measurement": "Plant response rating, Peanuts", "setting": "[12]; POSTEMERGENCE, Rate 125 g/ha", "value": 0},
      {"measurement": "Plant response rating, Peanuts", "setting": "[12]; POSTEMERGENCE, Rate 250 g/ha", "value": 0},
      {"measurement": "Plant response rating, Peanuts", "setting": "[12]; PREEMERGENCE, Rate 125 g/ha", "value": 0},
      {"measurement": "Plant response rating, Peanuts", "setting": "[12]; PREEMERGENCE, Rate 250 g/ha", "value": 0},
      {"measurement": "Plant response rating, Pit Morninglory", "setting": "[13]; POSTEMERGENCE, Rate 125 g/ha", "value": 0},
      {"measurement": "Plant response rating, Pit Morninglory", "setting": "[13]; POSTEMERGENCE, Rate 250 g/ha", "value": 70},
      {"measurement": "Plant response rating, Pit Morninglory", "setting": "[13]; PREEMERGENCE, Rate 125 g/ha", "value": 0},
      {"measurement": "Plant response rating, Pit Morninglory", "setting": "[13]; PREEMERGENCE, Rate 250 g/ha", "value": 30},
      {"measurement": "Plant response rating, S. Sandbur", "setting": "[14]; POSTEMERGENCE, Rate 125 g/ha", "value": 0},
      {"measurement": "Plant response rating, S. Sandbur", "setting": "[14]; POSTEMERGENCE, Rate 250 g/ha", "value": 0},
      {"measurement": "Plant response rating, S. Sandbur", "setting": "[14]; PREEMERGENCE, Rate 125 g/ha", "value": 0},
      {"measurement": "Plant response rating, S. Sandbur", "setting": "[14]; PREEMERGENCE, Rate 250 g/ha", "value": 0},
      {"measurement": "Plant response rating, Smooth Crabgras", "setting": "[15]; POSTEMERGENCE, Rate 125 g/ha", "value": 0},
      {"measurement": "Plant response rating, Smooth Crabgras", "setting": "[15]; POSTEMERGENCE, Rate 250 g/ha", "value": 0},
      {"measurement": "Plant response rating, Smooth Crabgras", "setting": "[15]; PREEMERGENCE, Rate 125 g/ha", "value": 0},
      {"measurement": "Plant response rating, Smooth Crabgras", "setting": "[15]; PREEMERGENCE, Rate 250 g/ha", "value": 100},
      {"measurement": "Plant response rating, Yellow Nutsedge", "setting": "[16]; POSTEMERGENCE", "value": 0},
      {"measurement": "Plant response rating, Yellow Nutsedge", "setting": "[16]; PREEMERGENCE", "value": 0}
    ]}
  ]
}
